Where “and” joins values, the source holds several entries; their conditions need not be identical. Identical values can stand only once. Counter-ions that a name gives are not always drawn. Like-named read-outs stand apart in the source and are kept apart here.
What was measured:
Vero-E6 cells = assay: cells; assay type: cell-based; conditions: for activation at 5 µM / activation at 10 µM / activation at 20 µM: Vero C1008, 24 h; for activation at 5 µM: read-out: PLD Effect in % 5 µM; for activation at 20 µM: read-out: PLD Effect in % 20 µM
SARS-CoV-2 [1] = conditions: cited from earlier work; for Vero-E6 CPE inhibition %: 10 µM; for EC50: read-out: Vero-E6 EC50
SARS-CoV-2 [2] = conditions: cited from earlier work; for CaCo2 CPE inhibition %: Caco-2, 20 µM
A549-ACE2 cells = assay: cells; assay type: cell-based; conditions: A549-ACE2, 24 h, read-out: PLD_Effect(%) A549-ACE2
[3] = cited from earlier work
[4] = Chlorocebus sabaeus, read-out: PLD Effect in % 10 µM
[5] = Chlorocebus sabaeus, Vero C1008, read-out: PLD EC50
[6] = Chlorocebus sabaeus, Vero C1008, read-out: PLD EC50 µM
[7] = Chlorocebus sabaeus, read-out: PLD_Effect(%) VERO-E6
[8] = value is the negative log10 of mol/L

Compound	activation at 5 µM (Vero-E6 cells; Chlorocebus sabaeus)	activation at 10 µM (Vero-E6 cells; [4])	activation at 20 µM (Vero-E6 cells; Chlorocebus sabaeus)	Vero-E6 CPE inhibition % (SARS-CoV-2 [1])	CaCo2 CPE inhibition % (SARS-CoV-2 [2])	PLD Effect in % 5 µM (Vero-E6 cells)	PLD Effect in % 10 µM (Vero-E6 cells)	PLD Effect in % 20 µM (Vero-E6 cells)	other results
O=C(NC1CCN(CCCCC2(C(=O)NCC(F)(F)F)c3ccccc3-c3ccccc32)CC1)c1ccccc1-c1ccc(C(F)(F)F)cc1 [Lomitapide, reference compound]	82.8%	169%	-28.6%	-0.39%	77.37%				
CC(C)c1ccc2c(c1)CC[C@H]1[C@](C)(CN)CCC[C@]21C [Lylamine, reference compound]				-0.36%	76.43%	104.48%	133.55%	-41.01%	
COc1ccccc1C1(O)CCN(CCCn2c3ccccc3c3ccccc32)CC1 [NNC-05-2090, reference compound]				-0.32%	71.83%	128.41%	178.14%	118.98%	EC50 (Vero-E6 cells; read-out: PLD EC50): 4.91 µM
CC(C)[C@H]1c2ccc(F)cc2CC[C@@]1(CCN(C)CCCc1nc2ccccc2[nH]1)OC(=O)C1CC1 [NNC-55-0396, reference compound]				0%	58.09%	87.06%	154.81%	-43.08%	EC50 (Vero-E6 cells; read-out: PLD EC50): 6.28 µM; EC50 (SARS-CoV-2 [1]): 8.21 µM
CCN(CC)CCCCNc1ncc2cc(-c3c(Cl)cccc3Cl)c(NC(=O)NC(C)(C)C)nc2n1 [PD-161570, reference compound]				12.35%	108.10%	163.59%	118.17%	36.18%	EC50 (Vero-E6 cells; read-out: PLD EC50): 0.63 µM; EC50 (SARS-CoV-2 [1]): 145 µM
CCOc1cc2ncc(C#N)c(Nc3ccc(F)c(Cl)c3)c2cc1NC(=O)/C=C/CN(C)C [Pelitinib (EKB-569), Pelitinib, reference compound]	76.1%	85.5%	101%	-0.31	83.39%				
CCOc1cc(C(C)(C)C)ccc1C1=N[C@@](C)(c2ccc(Cl)cc2)[C@@](C)(c2ccc(Cl)cc2)N1C(=O)N1CCN(CCCS(C)(=O)=O)CC1 [RG7112 (RO50455337), reference compound]	109%	141%	88.5%	6.32	88.52%				EC50 (Vero-E6 cells; [5]): 2.56 µM
COc1ccc(NC(=O)c2ccc(-c3ccc(-c4noc(C)n4)cc3C)cc2)cc1OCCN(C)C [SB-216641, reference compound]				-0.22%	57.65%	93.22%	104.74%	-42.60%	EC50 (Vero-E6 cells; read-out: PLD EC50): 1.19 µM
Cc1ccc(C(=O)N(CCCN)[C@@H](c2oc3cc(Cl)ccc3c(=O)c2Cc2ccccc2)C(C)C)cc1 [SB-743921, reference compound]	172%	224%	-43.6%	-0.36%	78.89%				EC50 (Vero-E6 cells; [6]): 2.49 µM
COC(=O)C1=C(C)NC(C)=C(C(=O)NCCCN2CCC(c3ccccc3)(c3ccccc3)CC2)C1c1ccc([N+](=O)[O-])cc1 (stereo not drawn) [SNAP-5089, reference compound]	66.5%	78.4%	24.9%	-0.12%	72.63%				EC50 (Vero-E6 cells; [6]): 2.01 µM
COc1ccc(CCN(C)CCCOc2ccc(S(=O)(=O)c3c(C(C)C)c4ccccc4n3C)cc2)cc1OC [SR-33805 oxalate, reference compound]				0.02	67.72%	54.44%	86.07%	137.08%	EC50 (Vero-E6 cells; read-out: PLD EC50): 9.26 µM
CN(C)CCNc1nc2cc(O)ccc2c2c1C(=O)c1ccccc1-2 [TAS-103, reference compound]				-0.08%	92.56%	135.39%	172.31%	121.21%	EC50 (Vero-E6 cells; read-out: PLD EC50): 2.29 µM
COc1cc2c(Nc3ccc(Br)cc3F)ncnc2cc1OCC1CCN(C)CC1 [Vandetanib (ZD6474), Vandetanib, reference compound]	129%	136%	-32.7%	0.29	51.24				EC50 (Vero-E6 cells; [5]): 1.05 µM
CN(C)CC/C=C1/c2ccccc2Sc2ccc(Cl)cc21 [chlorprothixene hydrochloride, reference compound]	124%	113%	192%	0.27%	55.65%				EC50 (Vero-E6 cells; [6]): 2.36 µM
CN1CCN(c2ccc(C(=O)Nc3n[nH]c4ccc(Cc5cc(F)cc(F)c5)cc34)c(NC3CCOCC3)c2)CC1 [entrectinib (RXDX-101), entrectinib, reference compound]				toxic	toxic	toxic	toxic	toxic	PLD EC50 µM (Vero-E6 cells): toxic; Vero-E6 EC50 µM (SARS-CoV-2 [1]): toxic; CaCo2 EC50 µM (SARS-CoV-2 [2]): toxic
CCCCN(CCCC)CCC(O)c1cc2c(Cl)cc(Cl)cc2c2cc(C(F)(F)F)ccc12 (stereo not drawn) [halofantrine HCl, reference compound]	79.8%	87%	114%	0.17%	91.38%				EC50 (Vero-E6 cells; [6]): 1.66 µM
Cc1ccc(C(=O)N(CCCN)[C@@H](c2nc3cc(Cl)ccc3c(=O)n2Cc2ccccc2)C(C)C)cc1 [ispinesib (SB-715992), ispinesib, reference compound]	207%	205%	-43.2%	-0.29	91.86%				EC50 (Vero-E6 cells; [5]): 1.81 µM
CN(C)C(=O)C(CCN1CCC(O)(c2ccc(Cl)cc2)CC1)(c1ccccc1)c1ccccc1 [loperamide hydrochloride, reference compound]	55%	75.4%	86.1%	5.03%	58.93%				
CN1C[C@H](CNC(=O)OCc2ccccc2)C[C@@H]2c3cccc4c3c(cn4C)C[C@H]21 [metergoline, reference compound]	61%	73%	103%	0.05%	54.65%				
COCC(=O)O[C@]1(CCN(C)CCCc2nc3ccccc3[nH]2)CCc2cc(F)ccc2[C@@H]1C(C)C [mibefradil, reference compound]	62%	80.5%	2.41%	-0.26	52.45%				activation at 10 µM (Vero-E6 cells; [7]): 88.2%; EC50 (Vero-E6 cells; [5]): 2.45 µM; activation at 10 µM (A549-ACE2 cells): 97.4%; pchembl_value (type AC50), Dopamine D3 receptor [3]: 6.08; pchembl_value (type AC50), Mu opioid receptor [3]: 6.01; pchembl_value (type AC50), Serotonin 1a (5-HT1a) receptor [3]: 6.13; AC50 ([3]; read-out: AC50 (value), Dopamine D3 receptor): 0.825 µM; AC50 ([3]; read-out: AC50 (value), Mu opioid receptor): 0.979 µM; AC50 ([3]; read-out: AC50 (value), Serotonin 1a (5-HT1a) receptor): 0.746 µM; IC50 ([3]; read-out: IC50 (value), Voltage-gated L-type calcium channel alpha-1C subunit): 0.25 µM; pchembl_value (type IC50), Voltage-gated L-type calcium channel alpha-1C subunit [3, 8]: 6.60; pchembl_value (type IC50), Voltage-gated T-type calcium channel alpha-1G subunit [3, 8]: 6.00 and 7.19; pchembl_value (type IC50), Voltage-gated T-type calcium channel alpha-1H subunit [3, 8]: 6.00 and 6.89; pchembl_value (type IC50), Voltage-gated T-type calcium channel alpha-1I subunit [3, 8]: 6.90 and 6.00 and 6.89
NCCC(Oc1ccc(C(F)(F)F)cc1)c1ccccc1 (stereo not drawn) [norfluoxetine, reference compound]	92.1%	112%	198%	-0.11%	94.99%				activation at 10 µM (Vero-E6 cells; [7]): 62.2%; EC50 (Vero-E6 cells; [6]): 1.96 µM; activation at 10 µM (A549-ACE2 cells): 108%
COc1cc(C)c2c(Oc3cccc(C(F)(F)F)c3)c(OC)cc(NC(C)CCCN)c2n1 (stereo not drawn) [tafenoquine, reference compound]				toxic	toxic	toxic	toxic	toxic	PLD EC50 µM (Vero-E6 cells): toxic; Vero-E6 EC50 µM (SARS-CoV-2 [1]): toxic; CaCo2 EC50 µM (SARS-CoV-2 [2]): toxic
COc1cccc([C@@H](C)NCCCc2ccccc2Cl)c1 [tecalcet, reference compound]	59.6%	74.3%	102%	-0.13%	78.10%				activation at 10 µM (Vero-E6 cells; [7]): 70.1%; EC50 (Vero-E6 cells; [6]): 2.6 µM; activation at 10 µM (A549-ACE2 cells): 93%
c1cc2c(cc1C1CCCCC1)c1c3n2CCNC3CCC1 (stereo not drawn) [tetrindole, reference compound]				-0.34%	75.19%	133.51%	133.70%	-33.00%	EC50 (Vero-E6 cells; read-out: PLD EC50): 9.59 µM
amodiaquine dihydrochloride [reference compound]				20.16%	78.80%	88.75%	101.86%	186.68%	EC50 (SARS-CoV-2 [1]): 21.5 µM

— publication PMC13083723 (Patterns, 2026)
